Measurements: US11286268B1, “EIF4E-inhibiting compounds and methods” (EFFECTOR THERAPEUTICS, INC., priority 2019, dated 2022)
Read-outs that look alike come from different tables or passages of the source.

Molecular target: recombinant eIF4E (Homo sapiens (Human), UniProt P06730)
Test: Fluorescence polarization competition assay for eIF4E binding potency
Procedure, shortened: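 Competition of test compound against 20 nM EDA-m^7GDP-ATTO-550 for 75 nM recombinant eIF4E, pre-incubated 5 min, in 20 mM Tris pH 7.5, 100 mM NaCl, 1 mM DTT, 0.02% Tween-20, 1% DMSO. Equilibrated 30 min at room temperature, dark; fluorescence polarization read. IC50 from 8-point, 3-fold dilution series.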

[1] = fluorescence polarization competition, 75 nM recombinant eIF4E, 20 nM EDA-m7GDP-ATTO-550, IC50 class, read-out: elF4E FP
[2] = inhibition of eIF4E/EDA-m7GDP-ATTO-550 binding by 50%, Table 4B calculated values, read-out: IC50
[3] = inhibition of eIF4E/EDA-m7GDP-ATTO-550 binding, calculated IC50 values, Table 4B, read-out: IC50

recombinant eIF4E, sequence (P06730 whole entry): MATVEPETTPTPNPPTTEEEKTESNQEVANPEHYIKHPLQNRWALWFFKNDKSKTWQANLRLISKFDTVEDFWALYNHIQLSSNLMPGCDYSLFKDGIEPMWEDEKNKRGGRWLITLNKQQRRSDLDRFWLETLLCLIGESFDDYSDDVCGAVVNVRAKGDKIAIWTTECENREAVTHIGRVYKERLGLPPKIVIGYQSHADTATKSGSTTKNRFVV

Compound | IC50 [1] | IC50 [2] | IC50 [3]
Cc1cc(-c2cc(Cl)ccc2OCCn2c(C)nc3c(-c4ccccc4)nc(C4CC4)c(C#N)c3c2=O)c2scc(C(=O)O)c2n1 [compound 910] | < 50 nM | 17.5 nM | –
Cc1nc2cnc(N3CCN(CCC(F)(F)F)CC3)c(C#N)c2c(=O)n1CC#Cc1ccc(Cl)cc1-c1ccnc2c(C(=O)NS(C)(=O)=O)csc12 [compound 1486] | – | – | 10.7 nM
Cc1nc2cnc(N3CCN(C4(C#N)CC4)CC3)c(C#N)c2c(=O)n1CC#Cc1ccc(Cl)cc1-c1ccnc2c(C(=O)O)csc12 [compound 1368] | – | – | 19.9 nM
Cc1cc(-c2cc(Cl)ccc2OCCn2c(C)nc3cnc(N4CC(OCC(F)F)C4)c(C#N)c3c2=O)c2scc(C(=O)O)c2n1 [compound 1043] | < 50 nM | 3.98 nM | –
CS(=O)(=O)c1cc(C(=O)O)cc(-c2cc(Cl)ccc2OCCn2cnc3cnc(C#N)cc3c2=O)c1 [compound 112] | > 1000 nM | > 3000 nM | –
C#Cc1cc(C#N)c2c(=O)n(CCOc3ccc(Cl)cc3-c3ccnc4c(C(=O)O)csc34)c(C)nc2c1 [compound 213] | < 50 nM | 35.6 nM | –
COc1cc(-c2cc(Cl)ccc2OCCn2cnc3cnc(C#N)cc3c2=O)cc(C(=O)O)n1 [compound 87] | > 1000 nM | 1160 nM | –
Cc1cc(-c2cc(Cl)ccc2OCCn2c(C)nc3cc(C(F)(F)F)c(C(C)N(C)C)c(C#N)c3c2=O)c2scc(C(=O)O)c2n1 (centres unmarked) [compound 711] | 50 to 1000 nM | 77.5 nM | –
Cc1cc(-c2cc(Cl)ccc2OCCn2c(C)nc3c(F)cc(Cl)c(C#N)c3c2=O)c2scc(C(=O)O)c2n1 [compound 588] | < 50 nM | 49.3 nM | –
Cc1nc2cc(CN(C)C)cc(C#N)c2c(=O)n1CCOc1ccc(Cl)cc1-c1ccnc2c(C(=O)O)csc12 [compound 512] | 50 to 1000 nM | 71.8 nM | –
COC(C)c1ncc2nc(C)n(CCOc3ccc(Cl)cc3-c3cc(C)nc4c(C(=O)O)csc34)c(=O)c2c1C#N (centres unmarked) [compound 988] | < 50 nM | 21.9 nM | –
Cc1nc2cc(C(F)F)c(C(F)F)c(C#N)c2c(=O)n1CCOc1ccc(Cl)cc1-c1cccc(C(=O)O)c1 [compound 64] | 50 to 1000 nM | 62.5 nM | –
Cc1nc2cnc(N(C)CCN(C)CC(F)(F)F)c(C#N)c2c(=O)n1CC#Cc1ccc(Cl)cc1-c1ccnc2c(C(=O)O)csc12 [compound 1491] | – | – | 29 nM
Cc1nc2cnc(N3CCN(C4COC4)CC3)c(C#N)c2c(=O)n1CC#Cc1ccc(Cl)cc1-c1ccnc2c(C(=O)O)csc12 [compound 1321] | – | – | 60.2 nM
Cc1nc2cnc(N(C)C3CCN(CCC(F)(F)F)CC3)c(C#N)c2c(=O)n1CC#Cc1ccc(Cl)cc1-c1ccnc2c(C(=O)O)csc12 [compound 1520] | – | – | 17.9 nM
Cc1cc(-c2cc(Cl)ccc2OCCn2c(C)nc3cnc(C4CCC(F)(F)C4)c(C#N)c3c2=O)c2scc(C(=O)O)c2n1 (centres unmarked) [compound 930] | < 50 nM | 6.88 nM | –
Cc1nc2cnc(/C=C/CN(C)CCF)c(C#N)c2c(=O)n1CC#Cc1ccc(Cl)cc1-c1ccnc2c(C(=O)O)csc12 [compound 1402] | – | – | 6.58 nM
Cc1cc(-c2cc(Cl)ccc2OCCn2c(C)nc3cnc(N(C)CC(F)F)c(C#N)c3c2=O)c2scc(C(=O)O)c2n1 [compound 973] | 50 to 1000 nM | 85 nM | –
Cc1nc2cnc(N(C)C3CCN(CC(F)(F)F)CC3)c(C#N)c2c(=O)n1CC#Cc1ccc(Cl)cc1-c1ccnc2c(C(N)=O)csc12 [compound 1594] | – | – | 442 nM
Cc1cc(-c2cc(Cl)ccc2OCCn2c(C)nc3cc(C(F)(F)F)c(N4CCN(C)CC4)c(C#N)c3c2=O)c2scc(C(=O)OC(C)OC(=O)OC3CCCCC3)c2n1 (centres unmarked) [compound 1082] | 50 to 1000 nM | 903 nM | –
Cc1nc2ccc(C(F)(F)F)c(C#N)c2c(=O)n1CCOc1ccc(Cl)cc1-c1ccnc2c(C(=O)O)csc12 [compound 1935] | – | – | 80.1 nM
Cc1nc2cc(C(F)(F)F)c(-c3cccnc3)c(C#N)c2c(=O)n1CCOc1ccc(Cl)cc1-c1cccc(C(=O)O)c1 [compound 388] | < 50 nM | 6.29 nM | –
Cc1nc2cnc(N3CC4(C3)CN(C3CC3)C4)c(C#N)c2c(=O)n1CC#Cc1ccc(Cl)cc1-c1ccnc2c(C(=O)O)csc12 [compound 822] | < 50 nM | 10.7 nM | –
Cc1nc2cc(C(F)(F)F)cc(C#N)c2c(=O)n1CCOc1ccc(Cl)cc1C1CCNC(C(=O)O)C1 (centres unmarked) [compound 535] | 50 to 1000 nM | 244 nM | –
Cc1nc2c(N3CCN(CCCC(F)(F)F)CC3)ncc(C#N)c2c(=O)n1CCOc1ccc(Cl)cc1-c1ccnc2c(C(=O)O)csc12 [compound 843] | < 50 nM | 13.1 nM | –
Cc1nc2cnc(N3CCN(C)C4(COC4)C3)c(C#N)c2c(=O)n1CCOc1ccc(Cl)cc1-c1ccnc2c(C(=O)O)csc12 [compound 1351] | – | – | 16 nM
CSc1cc(C(=O)O)cc(-c2cc(Cl)ccc2OCCn2cnc3cnc(C#N)cc3c2=O)c1 [compound 95] | > 1000 nM | 2860 nM | –

Compound | IC50 [1] | IC50 [2] | IC50 [3]
Cc1cc(-c2cc(Cl)ccc2OCCn2c(C)nc3c(C(F)(F)F)cc(Cl)nc3c2=O)c2scc(C(=O)O)c2n1 [compound 680] | 50 to 1000 nM | 56.6 nM | –
Cc1nc2cnc(N3CCN(CCS(C)(=O)=O)CC3)c(C#N)c2c(=O)n1CCOc1ccc(Cl)cc1-c1ccnc2c(C(=O)O)csc12 [compound 1339] | – | – | 36.4 nM
CCc1cc(-c2cc(Cl)ccc2OCCn2c(C)nc3cc(C(F)(F)F)c(-c4ccccn4)c(C#N)c3c2=O)c2scc(C(=O)O)c2n1 [compound 747] | < 50 nM | 18.9 nM | –
CCN(c1ncc2nc(C)n(CC#Cc3ccc(Cl)cc3-c3ccnc4c(C(=O)NS(=O)(=O)c5ccccn5)csc34)c(=O)c2c1C#N)C1CCN([C@H]2C[C@H](OC(F)F)C2)CC1 [compound 1771] | – | – | 26.6 nM
Cc1nc2cnc(N(C)C3CCN(CCC(C)(F)F)CC3)c(C#N)c2c(=O)n1CC#Cc1ccc(Cl)cc1-c1ccnc2c(C(=O)O)csc12 [compound 1190] | < 50 nM | – | 7.3 nM
Cc1nc2cnc(N3CCN(C(C)(C)C)CC3)c(C#N)c2c(=O)n1CCOc1ccc(Cl)cc1-c1ccnc2c(C(=O)O)csc12 [compound 1313] | – | – | 42.6 nM
Cc1ncc(F)cc1-c1c(CN(C)C)cc2nc(C)n(CCOc3ccc(Cl)cc3-c3ccnc4c(C(=O)O)csc34)c(=O)c2c1C#N [compound 1267] | – | – | > 1000 nM
Cc1cc(-c2cc(Cl)ccc2OCCn2c(C)nc3cnc(N(C)C4CCN(C)CC4)c(C#N)c3c2=O)c2sc(C)c(C(=O)O)c2n1 [compound 848] | < 50 nM | 26.9 nM | –
Cc1nc2cc(C(F)(F)F)cc(C#N)c2c(=O)n1CC#Cc1ccc(Cl)cc1-c1ccnc2c(C(=O)O)csc12 [compound 1901] | – | – | 35.7 nM
O=C(O)c1cccc(-c2cc(Cl)ccc2OCCn2cnc3cc(F)cc(F)c3c2=O)c1 [compound 78] | > 1000 nM | 1630 nM | –
Cc1nc2cnc(N3CCC4(CC3)CN(CC(F)F)C4)c(C#N)c2c(=O)n1CC#Cc1ccc(Cl)cc1-c1ccnc2c(C(=O)NS(=O)(=O)C3COC3)csc12 [compound 1408] | – | – | 17.6 nM
Cc1nc2cc(C(F)(F)F)c(F)c(C#N)c2c(=O)n1CCOc1ccc(Cl)cc1-c1ccnc2c(C(=O)O)csc12 [compound 246] | < 50 nM | 43 nM | –
Cc1nc2cc(C(F)(F)F)cc(C#N)c2c(=O)n1CCOc1cnc(C#N)cc1-c1ccnc2c(C(=O)O)csc12 [compound 291] | 50 to 1000 nM | 99.5 nM | –
Cc1nc2cc(C(F)(F)F)cc(C#N)c2c(=O)n1C/C=C/c1ccc(Cl)cc1-c1ccnc2c(C(=O)O)csc12 [compound 255] | 50 to 1000 nM | 78.5 nM | –
Cc1nc2cnc(N(C)C3CCN([C@@H]4C[C@H]4C(F)(F)F)CC3)c(C#N)c2c(=O)n1CC#Cc1ccc(Cl)cc1-c1ccnc2c(C(=O)O)csc12 [compound 1727] | – | – | 3.84 nM
Cc1nc2cc(C(F)(F)F)c(Cl)c(C#N)c2c(=O)n1CCOc1cc(F)c(Cl)cc1-c1ccnc2c(C(=O)O)csc12 [compound 505] | < 50 nM | 43.6 nM | –
Cc1nc2cnc(N3CCN(C(C)(C)C(F)(F)F)CC3)c(C#N)c2c(=O)n1CCOc1ccc(Cl)cc1-c1ccnc2c(C(=O)O)csc12 [compound 1316] | – | – | 32.8 nM
Cc1nc2cnc(C#CCN(C)CC(F)(F)F)c(C#N)c2c(=O)n1CC#Cc1ccc(Cl)cc1-c1ccnc2c(C(=O)O)csc12 [compound 1468] | – | – | 35 nM
N#Cc1cccc2nc(C(F)F)n(CCOc3ccc(Cl)cc3-c3cccc4c(C(=O)O)csc34)c(=O)c12 [compound 2017] | – | – | 50.6 nM
Cc1cc(-c2cc(Cl)ccc2OCCn2c(C)nc3c(C)nc(CC4CCOCC4)c(C#N)c3c2=O)c2scc(C(=O)O)c2n1 [compound 400] | < 50 nM | 4.68 nM | –
Cc1nc2cnc(N3CC4(CC4)N(C)C4(CC4)C3)c(C#N)c2c(=O)n1CCOc1ccc(Cl)cc1-c1ccnc2c(C(=O)O)csc12 [compound 1363] | – | – | 42.9 nM
Cc1cc(-c2cc(Cl)ccc2OCCn2c(C)nc3c(C)nc(-c4ccccc4)c(C#N)c3c2=O)c2scc(C(=O)O)c2n1 [compound 737] | < 50 nM | 12.3 nM | –
Cc1nc2cc(CN(C)C)c(F)c(C#N)c2c(=O)n1CCOc1ccc(Cl)cc1-c1ccnc2c(C(=O)O)csc12 [compound 517] | < 50 nM | 35.7 nM | –
Cc1sc2c(-c3cc(Cl)ccc3C#CCn3c(C)nc4cc(C(F)(F)F)c(CN5CCN(C)CC5)c(C#N)c4c3=O)ccnc2c1C(=O)O [compound 643] | < 50 nM | 0.832 nM | –
Cc1cc(-c2cc(Cl)ccc2OCCn2c(C)nc3cc(C(F)(F)F)c(-c4ccccn4)cc3c2=O)c2scc(C(=O)O)c2n1 [compound 426] | < 50 nM | 41.2 nM | –
Cc1nc2cnc(N(C)C3CCN(CC(F)(F)C(F)(F)F)CC3)c(C#N)c2c(=O)n1CC#Cc1ccc(Cl)cc1-c1ccnc2c(C(=O)O)csc12 [compound 1119] | < 50 nM | 14.6 nM | –
